Assay results: ChEMBL document CHEMBL1137288, “Antiprotozoal activities of new bis-chlorophenyl derivatives of bicyclic octanes and aza-nonanes” (Bioorg Med Chem Lett, 2006)

Assays:
[1] = Selectivity index, IC50 for L6 cells/ IC50 for Trypanosoma brucei rhodesience; assay type: functional
[2] = tested on: Trypanosoma brucei rhodesiense; test: Antiprotozoal activity against Trypanosoma brucei rhodesiense STIB900; assay type: functional, organism-based
[3] = Selectivity index, IC50 for L6 cells/IC50 for Plasmodium falciparum K1; assay type: functional
L6 = test: Cytotoxicity against L6 cells; assay type: cell-based; settings: Rattus norvegicus
Plasmodium falciparum = test: Antiprotozoal activity against chloroquine-, pyrimethamine-resistant Plasmodium falciparum K1; assay type: functional, organism-based
[4] = tested on: Trypanosoma brucei brucei; test: Survival of NMRI mouse infected with Trypanosoma brucei brucei at 50 mg/kg, ip; assay type: functional; settings: route intraperitoneal
[5] = tested on: Trypanosoma brucei brucei; test: Survival of NMRI mouse infected with Trypanosoma brucei brucei at 0.5 mg/kg, ip; assay type: functional; settings: route intraperitoneal

Compound	Ratio IC50 [1]	IC50 [2] [µM]	Ratio IC50 [3]	IC50 (L6) [µM]	IC50 (Plasmodium falciparum) [µM]	Mean survival days [4] [days]	Mean survival days [5] [days]
COc1ccc(C2CC3(N4CCCCC4)CC(O)C2C(c2ccc(OC)cc2)C3)cc1 (centres undefined)	3.13	14.2	8.95	44.6	4.98	–	–
COc1ccc(C2CC3(N(C)C)CC(O)C2C(c2ccc(OC)cc2)C3)cc1 (centres undefined)	29.5	2.15	11.53	63.4	5.5	–	–
OC1CC2(N3CCCC3)CC(c3ccc(Cl)cc3)C1C(c1ccc(Cl)cc1)C2 (centres undefined)	9.7	0.37	6.77	3.59	0.53	–	–
CN(C)C12CC(=O)C(C(c3ccccc3)C1)C(c1ccccc1)C2 (centres undefined)	2.46	9.99	2.32	24.6	> 10.6	–	–
COc1ccc(C2CC3(N(C)C)CC(=O)C2C(c2ccc(OC)cc2)C3)cc1 (centres undefined)	10.47	5.01	9.66	52.4	5.43	–	–
Clc1ccc(C2CC3(N4CCCCC4)CCNC2C(c2ccc(Cl)cc2)C3)cc1 (centres undefined)	124.6	0.065	17.61	8.1	0.46	10.25	–
CN(C)C12CC(=O)NC(C(c3ccccc3)C1)C(c1ccccc1)C2 (centres undefined)	7.09	38	192.2	> 269	1.4	–	–
OC(c1cc(C(F)(F)F)nc2c(C(F)(F)F)cccc12)C1CCCCN1 (centres undefined) [MEFLOQUINE]	–	–	–	11.4	–	–	–
Cc1ccc(C(=O)Nc2ccc(S(=O)(=O)O)c3cc(S(=O)(=O)O)cc(S(=O)(=O)O)c23)cc1NC(=O)c1cccc(NC(=O)Nc2cccc(C(=O)Nc3cc(C(=O)Nc4ccc(S(=O)(=O)O)c5cc(S(=O)(=O)O)cc(S(=O)(=O)O)c45)ccc3C)c2)c1 [SURAMIN]	629933	0.0075	–	4720	–	–	–
O=C1CC2(N3CCCC3)CC(c3ccccc3)C1C(c1ccccc1)C2 (centres undefined)	3.29	8.03	22.22	26.4	1.19	–	–
C[C@@H]1CC[C@H]2[C@@H](C)C(=O)O[C@@H]3O[C@@]4(C)CC[C@@H]1[C@]32OO4 [ARTEMISININ]	–	–	70390	–	0.0064	–	–
COc1ccc(C2CC3(N4CCCC4)CC(O)C2C(c2ccc(OC)cc2)C3)cc1 (centres undefined)	2.35	7.61	6.58	17.9	2.72	–	–
O/N=C1\CC2(N3CCCCC3)CC(c3ccc(Cl)cc3)C1C(c1ccc(Cl)cc1)C2 (centres undefined)	2.62	3.34	17.5	8.75	0.5	–	–
O=C1CC2(N3CCCC3)CC(c3ccccc3)C(N1)C(c1ccccc1)C2 (centres undefined)	6.58	37.9	28.43	> 250	8.76	–	–
COc1ccc(C2CC3(N4CCCC4)CC(=O)C2C(c2ccc(OC)cc2)C3)cc1 (centres undefined)	11.34	3.7	12.44	41.9	3.37	–	–
COc1ccc(C2CC3(N4CCCCC4)CC(=O)C2C(c2ccc(OC)cc2)C3)cc1 (centres undefined)	–	10	–	–	4.36	–	–
OC1CC2(N3CCCC3)CC(c3ccccc3)C1C(c1ccccc1)C2 (centres undefined)	6.28	4.26	11.2	26.8	2.39	–	–
CN(C)C12C/C(=N\O)C(C(c3ccc(Cl)cc3)C1)C(c1ccc(Cl)cc1)C2 (centres undefined)	5.21	1.5	7.82	7.82	1	–	–

Compound	Ratio IC50 [1]	IC50 [2] [µM]	Ratio IC50 [3]	IC50 (L6) [µM]	IC50 (Plasmodium falciparum) [µM]	Mean survival days [4] [days]	Mean survival days [5] [days]
CN(C)C12CCNC(C(c3ccc(Cl)cc3)C1)C(c1ccc(Cl)cc1)C2 (centres undefined)	143.3	0.061	21.32	8.74	0.41	9	–
c1ccc(C2CC3(N4CCCCC4)CCNC2C(c2ccccc2)C3)cc1 (centres undefined)	13.66	–	140.22	–	–	–	–
Nc1nc(N)nc(Nc2ccc([As]3SCC(CO)S3)cc2)n1 (centres undefined) [MELARSOPROL]	1995	–	–	–	–	–	42.5
Clc1ccc(C2CC3(N4CCCC4)CCNC2C(c2ccc(Cl)cc2)C3)cc1 (centres undefined)	152.4	0.066	40.24	10.1	0.25	5.75	–
CN(C)C12CC(O)C(C(c3ccc(Cl)cc3)C1)C(c1ccc(Cl)cc1)C2 (centres undefined)	27.41	0.32	8.95	8.77	0.98	–	–
c1ccc(C2CC3(N4CCCC4)CCNC2C(c2ccccc2)C3)cc1 (centres undefined)	103.8	–	215	–	–	–	–
O=C1CC2(N3CCCCC3)CC(c3ccccc3)C1C(c1ccccc1)C2 (centres undefined)	5.78	8.12	11.88	46.9	3.95	–	–
CN(C)C12C/C(=N\O)C(C(c3ccccc3)C1)C(c1ccccc1)C2 (centres undefined)	19.61	7.67	119.4	150	1.26	–	–
O/N=C1\CC2(N3CCCCC3)CC(c3ccccc3)C1C(c1ccccc1)C2 (centres undefined)	6.6	3.66	161.1	24.2	0.15	–	–
OC1CC2(N3CCCCC3)CC(c3ccc(Cl)cc3)C1C(c1ccc(Cl)cc1)C2 (centres undefined)	26.34	0.44	31.32	11.6	0.37	–	–
CN(C)C12CCNC(C(c3ccccc3)C1)C(c1ccccc1)C2 (centres undefined)	181.3	–	388.6	–	–	–	–
OC1CC2(N3CCCCC3)CC(c3ccccc3)C1C(c1ccccc1)C2 (centres undefined)	6.99	5.34	44.45	37.3	0.84	–	–
CN(C)C12CC(O)C(C(c3ccccc3)C1)C(c1ccccc1)C2 (centres undefined)	44.91	2.95	8.52	132	> 15.6	–	–
O/N=C1\CC2(N3CCCC3)CC(c3ccccc3)C1C(c1ccccc1)C2 (centres undefined)	7.31	1.84	168.1	13.5	0.08	–	–
O=C1CC2(N3CCCCC3)CC(c3ccccc3)C(N1)C(c1ccccc1)C2 (centres undefined)	6.38	36.6	17.97	234	13	–	–
O/N=C1/CC2(N3CCCC3)CC(c3ccc(Cl)cc3)C1C(c1ccc(Cl)cc1)C2 (centres undefined)	3.85	1.51	27.26	5.81	0.19	–	–
O/N=C1\CC2(N3CCCC3)CC(c3ccc(Cl)cc3)C1C(c1ccc(Cl)cc1)C2 (centres undefined)	7.49	1.69	24.82	12.7	0.51	–	–
